Experimental data taken from ChEMBL document CHEMBL1147324, “The isolation and structure of modified bioactive nucleosides from Jaspis johnstoni” (J Nat Prod, 1989).
≈ marks a conversion by molar mass, not a printed value.

Legend:
L1210 [1] = assay: Cytotoxicity against mouse L1210 cells; assay type: functional, cell-based
L1210 [2] = assay: Antitumor activity against mouse L1210 cells implanted in mouse assessed as increase in survival; assay type: functional
Candida albicans = assay: Antifungal activity against Candida albicans at 1.25 mg/6.4 mm disk; assay type: functional

With `COC(=O)c1cn([C@@H]2O[C@H](CO)[C@@H](O)[C@H]2O)c2ncnc(N)c12` the IC50 (L1210 [1]) was 0.027 µg/mL (≈ 0.0833 µM) and the Activity (L1210 [2]) was 39%.
For `N#Cc1cn([C@@H]2O[C@H](CO)[C@@H](O)[C@H]2O)c2ncnc(N)c12` [TOYOCAMYCIN], the “inhibition zone (IZ)” value (Candida albicans) was 13 mm and the IC50 (L1210 [1]) was 0.0026 µg/mL (≈ 0.00893 µM).
